Measurements as given in ChEMBL document CHEMBL4350955, “Novel Chemical Series of 5-Lipoxygenase-Activating Protein Inhibitors for Treatment of Coronary Artery Disease” (J Med Chem, 2019).
Values after ≈ are worked out from the molar mass of the structure shown.

Key:
[1] = biological target: T1, Arachidonate 5-lipoxygenase-activating protein (Homo sapiens) (UniProt P20292); assay: (§1) Inhibition of FLAP in human whole blood assessed as reduction in calcium ionophore-stimulated LTB4 production preincubated for 30 mins followed by calcium ionophore stimulation and measured after 20 mins by EIA; assay type: tissue-based
T1 sequence (whole entry): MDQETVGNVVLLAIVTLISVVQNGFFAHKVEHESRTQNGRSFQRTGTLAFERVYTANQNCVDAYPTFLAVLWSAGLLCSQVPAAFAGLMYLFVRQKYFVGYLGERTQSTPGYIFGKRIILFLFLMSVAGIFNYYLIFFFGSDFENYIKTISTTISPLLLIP

[2] = biological target: Voltage-gated inwardly rectifying potassium channel KCNH2 (Homo sapiens, UniProt Q12809); assay: Inhibition of human ERG by high-throughput electrophysiology assay
[3] = Apparent permeability across apical to basolateral side in human Caco2 cells; conditions: Caco-2
[4] = physchem; conditions: phosphate buffer, pH 7.4
Description: Aqueous solubility in pH 7.4 phosphate buffer after 24 hrs by UPLC/MS/MS analysis

[5] = biological target: Cytochrome P450 2C9 (Homo sapiens, UniProt P11712); assay: Inhibition of recombinant human CYP2C9 expressed in Escherichia coli assessed as maximum reduction in metabolite formation using coumarin based substrate by fluorescence assay; assay type: ADME
[6] = biological target: T2, Arachidonate 5-lipoxygenase-activating protein (Homo sapiens, UniProt P20292); assay: as §1; assay type: tissue-based
T2 sequence (P20292 whole entry): T1 sequence (whole entry)

[7] = Distribution coefficient between octanol and sodium phosphate buffer, logD of the compound in pH 7.4 buffer by LC-MS/MS-based shake flask method
[8] = Intrinsic clearance in cryopreserved human hepatocytes assessed as per million cells at 1 uM measured up to 60 mins by LC-MS/MS analysis; assay type: ADME, cell-based, Hepatocyte; conditions: read-out: CLH
[9] = biological target: T2, Arachidonate 5-lipoxygenase-activating protein; assay: Inhibition of [3H]MK0591 binding to human FLAP expressed in […] cell membranes measured after 60 to 80 mins by scintillation counting method

Chain of Cytochrome P450 2C9 (P11712 whole entry): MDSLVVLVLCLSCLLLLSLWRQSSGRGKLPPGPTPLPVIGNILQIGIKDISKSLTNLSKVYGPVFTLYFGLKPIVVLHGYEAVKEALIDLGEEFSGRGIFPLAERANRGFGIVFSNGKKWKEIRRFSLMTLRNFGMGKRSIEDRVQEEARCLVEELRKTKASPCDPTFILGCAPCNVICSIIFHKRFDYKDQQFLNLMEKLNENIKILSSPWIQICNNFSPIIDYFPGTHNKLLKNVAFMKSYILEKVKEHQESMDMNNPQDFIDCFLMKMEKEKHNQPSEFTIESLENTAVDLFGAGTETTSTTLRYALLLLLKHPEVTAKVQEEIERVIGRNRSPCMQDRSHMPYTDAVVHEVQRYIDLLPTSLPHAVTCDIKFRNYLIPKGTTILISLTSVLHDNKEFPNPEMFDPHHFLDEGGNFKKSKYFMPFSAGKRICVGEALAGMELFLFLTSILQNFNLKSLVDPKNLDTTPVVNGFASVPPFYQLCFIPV
Chain of Voltage-gated inwardly rectifying potassium channel KCNH2 (Q12809 whole entry): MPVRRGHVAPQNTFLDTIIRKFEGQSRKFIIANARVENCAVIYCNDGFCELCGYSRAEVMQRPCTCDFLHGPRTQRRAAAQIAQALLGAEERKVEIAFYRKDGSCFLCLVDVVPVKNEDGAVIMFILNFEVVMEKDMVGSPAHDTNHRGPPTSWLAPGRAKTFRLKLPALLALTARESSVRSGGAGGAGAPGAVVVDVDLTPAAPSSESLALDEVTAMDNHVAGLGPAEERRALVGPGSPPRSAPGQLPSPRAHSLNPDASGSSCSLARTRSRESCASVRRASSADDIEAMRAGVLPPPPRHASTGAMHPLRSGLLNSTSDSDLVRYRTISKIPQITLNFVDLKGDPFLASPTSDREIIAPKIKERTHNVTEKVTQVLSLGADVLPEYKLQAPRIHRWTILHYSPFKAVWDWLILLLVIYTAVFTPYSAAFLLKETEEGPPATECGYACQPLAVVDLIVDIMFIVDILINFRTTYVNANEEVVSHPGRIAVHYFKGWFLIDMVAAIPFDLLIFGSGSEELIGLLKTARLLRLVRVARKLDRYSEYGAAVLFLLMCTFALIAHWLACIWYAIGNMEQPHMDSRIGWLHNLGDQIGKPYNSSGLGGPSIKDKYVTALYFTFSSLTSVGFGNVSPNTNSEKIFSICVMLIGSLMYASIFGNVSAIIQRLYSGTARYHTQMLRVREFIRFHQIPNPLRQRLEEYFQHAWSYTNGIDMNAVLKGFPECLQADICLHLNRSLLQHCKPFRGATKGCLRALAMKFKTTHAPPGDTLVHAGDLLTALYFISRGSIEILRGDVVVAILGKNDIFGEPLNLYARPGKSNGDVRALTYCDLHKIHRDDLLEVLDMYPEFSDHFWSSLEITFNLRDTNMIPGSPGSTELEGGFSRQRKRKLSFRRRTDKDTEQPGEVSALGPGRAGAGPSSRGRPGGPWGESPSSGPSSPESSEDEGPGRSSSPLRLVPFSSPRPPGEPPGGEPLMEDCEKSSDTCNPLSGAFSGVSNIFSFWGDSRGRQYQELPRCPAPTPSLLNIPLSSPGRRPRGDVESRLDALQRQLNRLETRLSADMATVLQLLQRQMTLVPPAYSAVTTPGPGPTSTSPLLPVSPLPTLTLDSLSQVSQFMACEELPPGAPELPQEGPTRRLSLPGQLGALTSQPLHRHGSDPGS

Row | SMILES | fpIC50 [1] | IC50 [6] [µM] | logD [7] | IC50 [9] [µM] | further results
1 | Cc1cc(-c2ccc(C(=O)[C@@H]3CCCC[C@H]3C(=O)Nc3cn(C)nc3C(N)=O)cc2)[nH]n1 | 7.9 |  |  |  | 
2 | COc1cc(NC(=O)[C@@H]2CCCC[C@H]2C(=O)c2ccc(-c3cc[nH]n3)cc2)ncn1 | 9.3 | 0.0158 | 3.9 | 0.0158 | IC50 [2]: 12.6 µM; Papp A→B [3]: 69 ×10⁻⁶ cm/s; solubility at 24 h [4]: 22 µM (≈ 8.92 µg/mL); IC50 [5]: 5.01 µM; hepatocyte CLint at 1 µM [8]: 22 µL/min/1e6 cells
3 | Cc1nn(C)cc1NC(=O)[C@@H]1[C@H]2CC[C@H](CC2)[C@H]1C(=O)c1ccc(-c2cc[nH]n2)cc1F (racemic) | 7.1 | 0.2 | 4 | 0.0631 | 
4 | Cc1nn(C)cc1N(C)C(=O)[C@@H]1CCCC[C@H]1C(=O)c1ccc(-c2cc[nH]n2)cc1 | 7.5 | 0.251 | 3 | 0.2 | 
5 | Cc1nn(C)cc1NC(=O)[C@@H]1CCCC[C@H]1C(=O)c1ccc(-c2ccccn2)cc1 (racemic) | 6.8 | 2 | 2.8 | 0.501 | 
6 | Cc1nn(C)cc1NC(=O)[C@@H]1CCCC[C@H]1C(=O)c1ccc(-c2ccc[nH]2)cc1 (racemic) |  |  | 3.1 | 1 | 
7 | CC(=O)c1cccc(-c2ccc(C(=O)[C@@H]3CCCC[C@H]3C(=O)Nc3c(C)noc3C)cc2)c1 (racemic) |  |  | 3.9 | 2.51 | 
8 | Cc1cnn(-c2ccc(C(=O)[C@@H]3CCCC[C@H]3C(=O)Nc3cccc(C(N)=O)c3)cc2)c1 (racemic) | 7.4 | 2 | 3.6 | 0.316 | 
9 | Cc1nn(C)cc1NC(=O)[C@@H]1CCCC[C@H]1C(=O)c1ccc(-c2ccnn2C)cc1 (racemic) | 5.1 | 31.6 | 2.5 | 25.1 | 
10 | Cc1nn(C)cc1NC(=O)[C@@H]1CCCC[C@H]1C(=O)c1ccc(-c2cc[nH]n2)cc1 [listing 1 of 2 here] |  | 0.2 |  | 0.0501 | 
11 | Cc1c[nH]nc1-c1ccc(C(=O)[C@@H]2CCCC[C@H]2C(=O)Nc2cn(C)nc2C)cc1 (racemic) |  |  | 3.1 | 1 | 
12 | Cn1cc(NC(=O)[C@@H]2CCCC[C@H]2C(=O)c2ccc(-c3cc[nH]n3)cc2)c(OC(F)F)n1 | 8.5 |  |  |  | 
13 | Cc1nn(C)cc1NC(=O)[C@H]1CCCC[C@@H]1C(=O)c1ccc(-c2cc[nH]n2)cc1 | 5.8 | 7.94 |  | 2 | 
14 | Cc1nn(C)cc1NC(=O)[C@@H]1CCCC[C@H]1C(=O)c1ccc(-c2cc[nH]n2)cc1 (racemic) | 7.1 |  |  |  | 
15 | O=C(NCCc1ccccn1)[C@@H]1CCCC[C@H]1C(=O)c1ccc(-c2cc[nH]n2)cc1 | 6.7 | 2.51 | 3 | 0.251 | 
16 | Cc1noc(C)c1NC(=O)[C@@H]1CCCC[C@H]1C(=O)c1ccc(-c2cc[nH]n2)cc1 (racemic) |  | 0.501 |  | 0.2 | hepatocyte CLint at 1 µM [8]: 6 µL/min/1e6 cells
17 | Cc1nn(C)cc1NC(=O)[C@@H]1CCCC[C@H]1C(=O)c1ccc(-c2cc[nH]n2)nc1 (racemic) | 5.8 | 3.98 | 1.8 | 1 | 
18 | Cc1cc(-c2cc[nH]n2)ccc1C(=O)[C@@H]1CCCC[C@H]1C(=O)Nc1cn(C)nc1C (racemic) | 6.9 | 0.794 | 3 | 1 | 
19 | Cc1nn(C)cc1NC(=O)[C@@H]1CCCC[C@H]1C(=O)c1ccc(-c2cc[nH]n2)cc1 [listing 2 of 2 here] | 7.4 |  |  |  | 
